# Results: patent publication US11319315B2, “Cyclohexyl acid triazole azoles as LPA antagonists” (BRISTOL-MYERS SQUIBB COMPANY, priority 2017, dated 2022)
# pIC50: −log10 of the molar value.
# Biological target: T1, human LPA1 (Homo sapiens, UniProt Q92633)
# T1 construct: expressed in transfected cells; host or cells: Chinese hamster ovary (CHO) cells
# Experiment: LPA1 functional antagonist assay (LPA-induced calcium flux in CHO cells overexpressing human LPA1)
# Format: cell-based
# Details: inhibition of calcium flux induced by 10 nM LPA, CHO cells overexpressing human LPA1; read-out: hLPA1 IC50
# Method: The effectiveness of compounds of the present invention as LPA1 inhibitors can be determined in an LPA1 functional antagonist assay as follows:
# Chinese hamster ovary cells overexpressing human LPA1 were plated overnight (15,000 cells/well) in poly-D-lysine coated 384-well microplates (Greiner bio-one, Cat #781946) in DMEM/F12 medium (Gibco, Cat #11039). Following overnight culture, cells were loaded with calcium indicator dye (AAT Bioquest Inc, Cat #34601) for 30 minutes at 37° C. The cells were then equilibrated to room temperature for 30 minutes before the assay. Test compounds solubilized in DMSO were transferred to 384 well non-binding surface plates (Corning, Cat #3575) using the Labcyte Echo acoustic dispense and diluted with assay buffer [IX HBSS with calcium/magnesium (Gibco Cat #14025-092), 20 mM HEPES (Gibco Cat #15630-080) and 0.1% fatty acid free BSA (Sigma Cat #A9205)] to a final concentration of 0.5% DMSO. Diluted compounds were added to the cells by FDSS6000 (Hamamatsu) at final concentrations ranging from 0.08 nM to 5 μM. and were then incubated for 20 min at room temperature at which time LPA (Avanti Polar Lipids Cat #857130C) was added at final concentrations of 10 nM to stimulate the cells. The compound IC50 value was defined as the concentration of test compound which inhibited 50% of the calcium flux induced by LPA alone. IC50 values were determined by fitting data to a 4-parameter logistic equation (GraphPad Prism, San Diego Calif.).
# T1 sequence (Q92633 whole entry): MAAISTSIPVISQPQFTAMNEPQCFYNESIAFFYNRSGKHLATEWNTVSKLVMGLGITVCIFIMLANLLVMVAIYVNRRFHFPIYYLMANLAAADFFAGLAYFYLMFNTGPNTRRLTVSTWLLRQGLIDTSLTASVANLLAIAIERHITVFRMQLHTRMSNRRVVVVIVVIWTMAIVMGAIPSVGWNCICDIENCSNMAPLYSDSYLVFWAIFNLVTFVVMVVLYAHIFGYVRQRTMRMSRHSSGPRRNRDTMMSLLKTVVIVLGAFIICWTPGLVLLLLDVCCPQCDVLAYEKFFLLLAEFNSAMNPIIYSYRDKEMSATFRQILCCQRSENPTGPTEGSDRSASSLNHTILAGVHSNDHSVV
row,Compound,pIC50
1,"Cc1nc(-c2nnn(C)c2CNc2noc(C3CCCO3)n2)ccc1O[C@H]1CCC[C@H](C(=O)O)C1 (mixture of isomers) [Example 221, (1S,3S)-3-((2-methyl-6-(1-methyl-5-(((5-(tetrahydrofuran-2-yl)-1,2,4-oxadiazol-3-yl)amino)methyl)-1H-1,2,3-triazol-4-yl)pyridin-3-yl)oxy) cyclohexane-1-carboxylic acid]",6.66
2,"COC(C)c1nc(NCc2c(-c3ccc(O[C@H]4CCC[C@H](C(=O)O)C4)c(C)n3)nnn2C)no1 (mixture of isomers) [Example 223, (1S,3S)-3-((6-(5-(((5-(1-methoxy-ethyl)-1,2,4-oxadiazol-3-yl)amino)methyl)-1-methyl-1H-1,2,3-triazol-4-yl)-2-methylpyridin-3-yl)oxy)cyclo-hexane-1-carboxylic acid]",6.33
3,"Cc1nc(-c2nnn(C)c2CNc2noc(C(C)OC3CC3)n2)ccc1O[C@H]1CCC[C@H](C(=O)O)C1 (mixture of isomers) [Example 226, (1S,3S)-3-((6-(5-(((5-(1-cyclopro-poxyethyl)-1,2,4-oxadiazol-3-yl)amino)methyl)-1-methyl-1H-1,2,3-triazol-4-yl)-2-methylpyridin-3-yl)oxy)cyclohexane-1-carboxylic acid]",6.91
4,"CC[C@@H](OC)c1nc(NCc2c(-c3ccc(O[C@H]4CCC[C@H](C(=O)O)C4)c(C)n3)nnn2C)no1 (single isomer, unassigned) [Example 215]",6.81
5,"CC[C@@H](OC)c1nc(NCc2c(-c3ccc(O[C@H]4CCC[C@H](C(=O)O)C4)c(C)n3)nnn2C)no1 (single isomer, unassigned) [Example 216]",6.92
6,"Cc1nc(-c2nnn(C)c2CNc2nsc(C3CC3)n2)ccc1O[C@H]1CCC[C@H](C(=O)O)C1 [Example 1, (1 S,3 S)-3-((6-(5-(((5-Cyclopropyl-1,2,4-thiadiazol-3-yl)amino)methyl)-1-methyl-1H-1,2,3-triazol-4-yl)-2-methylpyridin-3-yl)oxy)cyclohexane-1-carboxylic acid]",5.93
7,"CCCc1nnc(NCc2c(-c3ccc(O[C@H]4CCC[C@H](C(=O)O)C4)c(C)n3)nnn2C)s1 [Example 2, (1 S,3S)-3-((2-Methyl-6-(1-methyl-5-(((5-propyl-1,3,4-thiadiazol-2-yl)amino)methyl)-1H-1,2,3-triazol-4-yl)pyridin-3-yl)oxy)cyclohexanecarboxylic acid]",6.73
8,"Cc1nc(-c2nnn(C)c2CNc2nc(C(C)(C)C)ns2)ccc1O[C@H]1CCC[C@H](C(=O)O)C1 [Example 3, (1 S,3 S)-3-((6-(5-(((3-(tert-Butyl)-1,2,4-thiadiazol-5-yl)amino)methyl)-1-methyl-1H-1,2,3-triazol-4-yl)-2-methylpyridin-3-yl)oxy)cyclohexanecarboxylic acid]",6.63
9,COc1nc(NCc2c(-c3ccc(O[C@H]4CCC[C@H](C(=O)O)C4)c(C)n3)nnn2C)ns1 [Example 4],5.95
10,Cc1nc(-c2nnn(C)c2CNc2nnc(C3CC3)s2)ccc1O[C@H]1CCC[C@H](C(=O)O)C1 [Example 7],5.65
11,Cc1nc(-c2nnn(C)c2CNc2nnc(CC(C)C)s2)ccc1O[C@H]1CCC[C@H](C(=O)O)C1 [Example 8],6.34
12,CCCn1cc(NCc2c(-c3ccc(O[C@H]4CCC[C@H](C(=O)O)C4)c(C)n3)nnn2C)nn1 [Example 11],6.15
13,Cc1nc(-c2nnn(C)c2CNc2nc(C(C)C)cs2)ccc1O[C@H]1CCC[C@H](C(=O)O)C1 [Example 12],6.13
14,Cc1nc(-c2nnn(C)c2CNc2nc(-c3ccccc3)cs2)ccc1O[C@H]1CCC[C@H](C(=O)O)C1 [Example 14],6.89
15,Cc1nc(-c2nnn(C)c2CNc2nc3c(s2)CCCC3)ccc1O[C@H]1CCC[C@H](C(=O)O)C1 [Example 17],5.92
16,"Cc1nc(-c2nnn(C)c2CNc2cn(CC(C)C)nn2)ccc1O[C@H]1CCC[C@H](C(=O)O)C1 [Example 23, (1 S,3 S)-3-((6-(5-(((1-isobutyl-1H-1,2,3-triazol-4-yl)amino)methyl)-1-methyl-1H-1,2,3-triazol-4-yl)-2-methylpyridin-3-yl)oxy)cyclohexane-1-carboxylic acid]",6.36

# These reach a higher pIC50. Values come first.
row,pIC50,Compound
1,6.97,CCc1cnc(NCc2c(-c3ccc(O[C@H]4CCC[C@H](C(=O)O)C4)c(C)n3)nnn2C)o1 [Example 19]
2,7.00,Cc1nc(-c2nnn(C)c2CNc2ncc(-c3ccccn3)o2)ccc1O[C@H]1CCC[C@H](C(=O)O)C1 [Example 20]
3,7.04,"CCOC(C)c1nc(NCc2c(-c3ccc(O[C@H]4CCC[C@H](C(=O)O)C4)c(C)n3)nnn2C)no1 (mixture of isomers) [Example 222, (1S,3S)-3-((6-(5-(((5-(1-ethoxyethyl)-1,2,4-oxadiazol-3-yl)amino)methyl)-1-methyl-1H-1,2,3-triazol-4-yl)-2-methylpyridin-3-yl)oxy)cyclohexane-1-carboxylic acid]"
4,7.08,"CCC(OC)c1nc(NCc2c(-c3ccc(O[C@H]4CCC[C@H](C(=O)O)C4)c(C)n3)nnn2C)no1 (mixture of isomers) [Example 217, (1S,3S)-3-((6-(5-(((5-(1-methoxy-propyl)-1,2,4-oxadiazol-3-yl)amino)methyl)-1-methyl-1H-1,2,3-triazol-4-yl)-2-methylpyridin-3-yl)oxy) cyclo-hexane-1-carboxylic acid]"
5,7.15,Cc1nc(-c2nnn(C)c2CNc2nc(C(C)C)ns2)ccc1O[C@H]1CCC[C@H](C(=O)O)C1 [Example 10]
6,7.17,Cc1nc(-c2nnn(C)c2CNc2ncc(-c3ccccc3)s2)ccc1O[C@H]1CCC[C@H](C(=O)O)C1 [Example 16]
7,7.23,"CCCC(C)c1nc(NCc2c(-c3ccc(O[C@H]4CCC[C@H](C(=O)O)C4)cn3)nnn2C)no1 (mixture of isomers) [Example 291, (1S,3S)-3-((6-(1-methyl-5-(((5-(pentan-2-yl)-1,2,4-oxadiazol-3-yl)amino)methyl)-1H-1,2,3-triazol-4-yl)pyridin-3-yl)oxy)cyclohexane-1-carboxylic acid, racemate]"
8,7.26,Cc1nc(-c2nnn(C)c2CNc2ncc(C(C)C)s2)ccc1O[C@H]1CCC[C@H](C(=O)O)C1 [Example 15]
9,7.38,"Cc1nc(-c2nnn(C)c2CNc2cnn(CC(C)C)n2)ccc1O[C@H]1CCC[C@H](C(=O)O)C1 [Example 22, (1 S,3 S)-3-((6-(5-(((2-isobutyl-2H-1,2,3-triazol-4-yl)amino)methyl)-1-methyl-1H-1,2,3-triazol-4-yl)-2-methylpyridin-3-yl)oxy)cyclohexane-1-carboxylic acid]"
10,7.42,Cc1nc(-c2nnn(C)c2CNc2nc(-c3ccccc3)ns2)ccc1O[C@H]1CCC[C@H](C(=O)O)C1 [Example 9]
11,7.43,"CCC(C)Cc1nc(NCc2c(-c3ccc(O[C@H]4CCC[C@H](C(=O)O)C4)cn3)nnn2C)no1 (mixture of isomers) [Example 290, (1S,3S)-3-((6-(1-methyl-5-(((5-(2-methylbutyl)-1,2,4-oxadiazol-3-yl)amino)methyl)-1H-1,2,3-triazol-4-yl)pyridin-3-yl)oxy)cyclohexane-1-carboxylic acid, racemate]"
12,7.46,"CCCOC(C)c1nc(NCc2c(-c3ccc(O[C@H]4CCC[C@H](C(=O)O)C4)c(C)n3)nnn2C)no1 (mixture of isomers) [Example 218, (1S,3S)-3-((2-methyl-6-(1-methyl-5-(((5-(1-propoxyethyl)-1,2,4-oxadiazol-3-yl)amino)methyl)-1H-1,2,3-triazol-4-yl)pyridin-3-yl)oxy)cyclohexane-1-carboxylic acid]"
13,7.55,"Cc1nc(-c2nnn(C)c2Cc2noc(C(C)C3CC3)n2)ccc1O[C@H]1CCC[C@H](C(=O)O)C1 (mixture of isomers) [Example 239, (1S,3S)-3-((6-(5-((5-(1-cyclopropyl-ethyl)-1,2,4-oxadiazol-3-yl)methyl)-1-methyl-1H-1,2,3-triazol-4-yl)-2-methylpyridin-3-yl)oxy)cyclohexane-1-carboxylic acid]"
14,7.55,CCOc1nc(NCc2c(-c3ccc(O[C@H]4CCC[C@H](C(=O)O)C4)c(C)n3)nnn2C)ns1 [Example 5]
15,7.74,Cc1nc(-c2nnn(C)c2CNc2nsc(-c3ccccc3)n2)ccc1O[C@H]1CCC[C@H](C(=O)O)C1 [Example 6]
16,7.74,"Cc1nc(-c2nnn(C)c2CNc2nc(-c3ccccc3)c(F)s2)ccc1O[C@H]1CCC[C@H](C(=O)O)C1 [Example 21, (1 S,3 S)-3-((6-(5-(((5-fluoro-4-phenylthiazol-2-yl)amino)methyl)-1-methyl-1H-1,2,3-triazol-4-yl)-2-methylpyridin-3-yl)oxy)cyclohexane-1-carboxylic acid]"
17,7.82,Cc1nc(-c2nnn(C)c2CNc2nc(-c3ccccc3)c(C)s2)ccc1O[C@H]1CCC[C@H](C(=O)O)C1 [Example 18]
18,7.89,Cc1nc(-c2nnn(C)c2CNc2nc(C3CCC3)cs2)ccc1O[C@H]1CCC[C@H](C(=O)O)C1 [Example 13]
